Source: patent US5232917A, “Methods, compositions, and compounds for allosteric modulation of the GABA receptor by members of the androstane and pregnane series” (priority 1991, dated 1993)
pIC50: −log10 of the molar value. Where two headings read alike, the source gives them in different places.

How the values were obtained:
[1] = system: punished responding; experiment: Vogel conflict paradigm (lick suppression); assay type: in vivo, mice (male N.I.H. Swiss-Webster); conditions: CDP 10 mg/kg
Text: An Anxio-Monitor (Omnitech Electronics, Columbus, Ohio) was used for measuring lick suppression. The testing chamber consisted of a clear plexiglass box (29 cm×29 cm×23 cm) with a metal drinking tube located 2.5 cm from the floor and extending 2 cm into the box. The shock was applied through the drinking spout and was controlled by the Anxio-Monitor. […] The reinforcer was 0.1M sucrose.
The conflict test procedure described by Vogel et al. (1980) was employed. This procedure is a modification of the original lick suppression test first described by Vogel et al. (1971). After 24 hr. of water deprivation,mice were allowed to explore the test apparatus and drink without punishment for 10 min. or 100 licks. […] Mice were allowed unpunished access to the drinking tube for 20 licks, thereafter, every 10th lick was punished with 0.1 mA shock. The test duration was 5 min.
(§1) The vehicle control data were analyzed across test days using an 1-way analysis of variance (ANOVA). […] The dose-response curves were then analyzed using an 1-way ANOVA, followed by Dunnett's t-test for individual comparisons between doses and control. The open-field and habituated locomotor data were analyzed using ANOVA followed by Dunnett's t-test. […] All data is expressed as the mean±S.E.M.

[2] = system: number of light/dark transitions (anxiety); experiment: Light/dark transition test; assay type: in vivo, mice (male N.I.H. Swiss-Webster)
Text: (§2) The light/dark transition test (Crawley and Goodwin, 1980) is based on the observation that rodents naturally tend to explore novel environments, but open, brightly lit arenas are aversive to the rodents and inhibit exploratory behavior (Christmas and Maxwell, 1970; File, 1980). […] Similar to the light/dark transition test, the open-field test measures the antagonism between the tendency to explore a novel environment and the tendency to remain still in an aversive environment (brightly lit arena). […] The open-field test provides a simple, non-punished assessment of the potential anxiolytic properties of novel compounds. Finally, 3α-OH-DHP was tested for anxiolytic properties in a Vogel conflict paradigm. The ability of BZs to attenuate the suppression of behavior by punishment in conflict paradigms is well established (Gellar et al., 1962; Vogel et al., 1971).
(§3) Male N.I.H. Swiss-Webster mice (Harlan) weighing 15-20 g were used in all experiments. The mice were housed 4/cage in polyethylene cages with sawdust bedding. The colony room was environmentally controlled (22° C.) with a 12 hr. light/dark cycle (0600-1800 hrs.). The mice had free access to food and water. The experiments were run from 0700-1500 hrs. and groups were counterbalanced for time of day effects.
The method used was previously described by Crawley and Goodwin (1980). The apparatus included a large box (26×33×24 cm) connected to a small box (15×22×14 cm) through an opening (5×6 cm). The large box was brightly lit with a standard 100W light bulb, while the small box was kept dark. Following pretreatment with a test drug, mice were placed in the center of the large box and the number of transitions between the large and small boxes was counted for 10 min. […] During the antagonist studies, CGS-8216 was administered 30 min. prior to the test drug.
(§4) 2-Hydroxypropyl β-cyclodextrin Diazepam and chlordiazepoxide are available from Sigma, Co. (St. Louis, Mo.). CGS-8216 was obtained from Ciba-Geigy (Summit, N.J.). All drugs were dissolved in 20% β-cyclodextrin in water and sonicated overnight. All drugs were administered intraperitoneally in a volume of 100 μL/20 g. CGS-8216 was administered subcutaneously in a volume of 100 μL/20 g.
as §1

[3] = system: number of light/dark transitions (anxiety); conditions: Crawley et al., cited from earlier work; for effect on number of light/dark transitions (literature): Blumstein and Crawley, 1983
[4] = system: metrazol-induced convulsions; conditions: Swinyard & Woodhead, 1982; cited from earlier work
[5] = Swinyard & Woodhead, 1982; cited from earlier work
[6] = system: picrotoxin-induced convulsions; conditions: Swinyard & Woodhead, 1982; cited from earlier work
[7] = system: GABA receptor complex (36Cl uptake, cerebral cortical synaptoneurosomes); experiment: GABA-stimulated 36Cl uptake in rat cerebral cortical synaptoneurosomes; assay type: biochemical, rat (male Sprague-Dawley)
Procedure: In addition, the ability of the BZ clonazepam to modulate ^36 Cl uptake in the presence or absence of 5α-pregnandiol was evaluated.
The homogenate was diluted to a final volume of 40 mL with buffer and filtered through three layers of Nylon mesh (160 μm).
Aliquots of membrane preparation (200 μL) were preincubated at 30° C. for 10 min. The interaction was initiated by the simultaneous addition of drugs/steroids and 0.2 mL ^36 Cl (New England Nuclear Boston, Mass., 0.55 mCi/mmol, 0.8 μCi/ml) resulting in a total incubation volume of 0.4 mL. Steroids and test drugs were solubilized in dimethylsufoxide (DMSO) and added to the reaction mixture in 2 μL aliquots. An equal volume of vehicle was always included in the control reaction mixture. The mixture was gently mixed and ^36 Cl uptake terminated after 5 sec by the of 5 mL of ice cold buffer containing 100 μM picrotoxin (Sigma Chem Co.) followed immediately by rapid filtration through glass fiber filters (Whatman GF/C) under vacuum. The filters were washed twice with 5 mL of ice-cold buffer and the filter-bound radioactivity quantitated by liquid scintillation spectrophotometry. Specific uptake was calculated by subtracting the amount of ^36 Cl bound to the filters in the absence of synaptoneurosomes from that observed in their presence. Percent enhancement represents percent increase in uptake over that of basal ^36 Cl uptake. Statistical comparisons utilized the analysis of variance (ANOVA).

[8] = system: maximal electroshock seizure; conditions: Swinyard & Woodhead, 1982; cited from earlier work
[9] = system: strychnine-induced convulsions; set-up: key to ED50 STR (strychnine): NP: no protection; conditions: Swinyard & Woodhead, 1982; cited from earlier work
[10] = system: (+)bicuculline-induced seizures; conditions: Swinyard & Woodhead, 1982; cited from earlier work
[11] = system: sedative potential (rotorod); conditions: Swinyard & Woodhead, 1982; cited from earlier work
[12] = system: open-field activity; experiment: Open-field activity test; assay type: in vivo, mice (male N.I.H. Swiss-Webster); conditions: diazepam 10 mg/kg
Text: as §2, §3
As a secondary measure of anxiolytic effects, naive mice were placed in the center of a large, brightly lit plexiglass box (42×42×30.5 cm) and the total distance traveled was measured during a 10 min. test period. […] The Digiscan Activity Monitor (Omnitech Electronics, Columbus, Ohio) includes 16 photobeams that surround the box. The activity monitor is linked to a computer through a Digiscan Analyzer (Omnitech Electronics) and the data is analyzed using the Integrated Lab Animal Monitoring System (Omnitech Electronics). The mice were administered drugs as described for light/dark transitions.
as §4, §1

[13] = system: locomotor activity; experiment: Locomotor activity in habituated mice; assay type: in vivo, mice (male N.I.H. Swiss-Webster)
Procedure: For evaluation of a drug's effects on general activity, mice were first habituated to the open-field apparatus for 15 min. The following day, mice were pretreated with a test drug and placed in the center of the activity chambers. The total distance traveled was measured for 10 min.
as §1

[14] = system: GABA receptor-chloride ionophore complex (GR complex); experiment: [35S]TBPS binding modulation assay
[15] = system: PMS, PND and catamenial epilepsy; conditions: cited from earlier work; for clinical effectiveness: PMS, PND, catamenial epilepsy (progesterone), menstrual-cycle correlated epileptic spells (desoxycorticosterone)

SMILES: CNC1=Nc2ccc(Cl)cc2C(c2ccccc2)=[N+]([O-])C1 [CDP, reference compound]
- increase in punished responding vs controls ([1]; 5 min session, p=0.03, FIG. 14): 197.4%
- punished responding ([1]; controls 3.11±0.68): 6.14±1.14

SMILES: O=C1C2C=Nc3ccccc3C2=NN1c1ccccc1 (stereo not drawn) [CGS-8216, reference compound]
- block of anxiolytic effect of 3α-OH-DHP by CGS-8216 ([2]; CGS-8216 10 mg/kg, 3α-OH-DHP 10 mg/kg, FIG. 13A): unable to block
- block of anxiolytic effect of diazepam by CGS-8216 ([2]; diazepam 1.0 mg/kg, FIG. 13B): able to block the anxiolytic effect of diazepam
- intrinsic activity in light/dark transition test ([2]; p>0.4 vs vehicle): did not demonstrate any intrinsic activity
- block of diazepam's anxiolytic effects (literature) [3]; 1984: block diazepam's anxiolytic effects

SMILES: O=C1CN=C(c2ccccc2Cl)c2cc([N+](=O)[O-])ccc2N1 [Clonazepam]
- ED50 MTZ (metrazol) [4]: 0.009 mg/kg
- LD50 [5]: > 6000 mg/kg
- ED50 PICRO (picrotoxin) [6]: 0.043 mg/kg
- % enhancement of basal 36Cl uptake ([7]; GABA (25 μM) + clonazepam (1 μM)): 164±2%
- % enhancement of basal 36Cl uptake ([7]; clonazepam (1 μM), no GABA): 1 ± 0.5%
- ED50 MES (maximal electroshock) [8]: 93 mg/kg
- ED50 STR (strychnine) [9]: NP
- ED50 BIC (bicuculline) [10]: 0.0086 mg/kg
- effect on number of light/dark transitions (literature) [3]: increase the number of transitions
- ED50 RR (Rotorod) [11]: 0.184 mg/kg

SMILES: CN1C(=O)CN=C(c2ccccc2)c2cc(Cl)ccc21 [Diazepam, reference compound]
- total distance, open-field ([12]; 10 min, vehicle 2004.6 ± 134.6): 4817.7 ± 528.4 cm
- effect on open-field activity ([12]; steroids 20 mg/kg): significant (p<0.01) increase in activity
- effect on number of light/dark transitions (words) ([2]; 3α-OH-DHP 10, 20, 40 mg/kg, 5α-THDOC 20 mg/kg, diazepam 1.0, 5.0, 10, 20 mg/kg, 20 mg/kg): significantly (p<0.01) different from controls
- number of transitions in 10 min (maximal response) ([2]; diazepam 10 mg/kg i.p., FIG. 11): 86.4±5.4 transitions
- effect on locomotor activity ([13]; acclimated mice): no effect
- total distance traveled, acclimated mice ([13]; diazepam 10 mg/kg, controls 2061.2±157.7 cm): 2258.0±897.7 cm
- effect on number of light/dark transitions (literature) [3]: increase the number of transitions

SMILES: CC(=O)[C@H]1CC[C@H]2[C@@H]3CCC4=CC(=O)CC[C@]4(C)[C@H]3CC[C@]12C [PROGESTERONE, reference compound]
- potency/activity at the GR complex ([14]; modulation of [35S]TBPS binding): very low potency
- pIC50 ([14]; read-out: IC50, inhibition of [35S]-TBPS binding, +5 μM GABA, in the presence of 5 μM GABA): 5.28
- pIC50 ([14]; read-out: IC50, inhibition of [35S]-TBPS binding, No GABA, washed synaptoneurosomes, no GABA added): < 4.00
- Max. Inhib., maximal % of specifically bound [35S]-TBPS displaced ([14]; saturating concentrations of test compound): 100%
- dose-response relationship in the treatment of PMS ([15]; Maddocks et al., Dennerstein et al.): no dose-response relationship exists
- clinical effectiveness [15]: not consistently effective

SMILES: C[C@]12CC[C@H]3[C@@H](CCC4=CC(=O)CC[C@@]43C)[C@@H]1CC[C@@H]2C(=O)CO [desoxycorticosterone]
- clinical effectiveness [15]: effective
